In patent publication US20250176599A1, “FLAVOR COMPOSITION AND FOOD AND BEVERAGE” (TAKASAGO INTERNATIONAL CORPORATION, priority 2021, published 2025):

Experiments:
[1] = Sensory evaluation of aqueous solution I containing (E)-2-nonenal 1 ppb: off-flavor intensity and masking component intensity; conditions: (E)-2-nonenal 1 ppb, average score 0-4
Summary of the method: (§1)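 Degradation component dissolved in ion-exchanged water; nootkatone then added. Eight experienced panelists tasted each sample, rating off-flavor (0 not sensed to 4 strongly sensed) relative to the masker-free solution set at 4 and water at 0, and masker intensity on an absolute 0–4 scale.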

[2] = Sensory evaluation of aqueous solution II containing (E)-2-octenal 10 ppb: off-flavor intensity and masking component intensity; conditions: (E)-2-octenal 10 ppb, average score 0-4
Summary of the method: as §1

[3] = Sensory evaluation of aqueous solution III containing 1-octen-3-one 1 ppb: off-flavor intensity and masking component intensity; conditions: 1-octen-3-one 1 ppb, average score 0-4
Summary of the method: as §1

[4] = Sensory evaluation of aqueous solution IV containing 1,5-octadien-3-one 100 ppt: off-flavor intensity and masking component intensity; conditions: aqueous solution IV, 1,5-octadien-3-one 100 ppt, average score 0-4
Summary of the method: as §1

[5] = Sensory evaluation of aqueous solution V containing 1-octen-3-ol 10 ppb: off-flavor intensity and masking component intensity; conditions: 1-octen-3-ol 10 ppb, average score 0-4
Summary of the method: as §1

[6] = Sensory evaluation of aqueous solution VI containing 1,5-octadien-3-ol 10 ppb: off-flavor intensity and masking component intensity; conditions: aqueous solution VI, 1,5-octadien-3-ol 10 ppb, average score 0-4
Summary of the method: as §1

[7] = Sensory evaluation of degradation component-added soymilk I ((E)-2-nonenal 5 ppb); conditions: average panel score
Experimental: (§2) To commercially available soymilk (“Delicious Unadjusted Soymilk” manufactured by Kikkoman Corporation), each degradation component was added to prepare degradation component-added soymilks at the concentrations listed in Table 23. To these degradation component-added soymilks, 1,4-dioxacycloheptadecan-5,17-dione was added at the concentrations listed in Table 23 to confirm the intensity of the off-flavor (masking effect) and the intensity of the masking components (impact on the flavor of the soymilk itself) for each sample.
(§3) Eight experienced panelists were selected to conduct a sensory evaluation similar to that of Example 1. […]

[8] = Sensory evaluation of degradation component-added soymilk II (1-octen-3-ol 500 ppb); conditions: average panel score
Experimental: as §2, §3

[9] = Overall conclusion of the sensory evaluation across aqueous solutions I to VI
Summary of the method: as §1

[10] = Overall conclusion of the sensory evaluation across soymilks I and II
Experimental: as §2
Eight experienced panelists were selected to conduct a sensory evaluation similar to that of Example 1.
The same method as in Example 20 was used to confirm the intensity of the off-flavor (masking effect) derived from unsaturated fatty acids by α-methyl ionone and the intensity of the masking components (impact on the flavor of the soymilk itself).
The same method as in Example 20 was used to confirm the intensity of the off-flavor (masking effect) derived from unsaturated fatty acids by menthyl 3-hydroxybutyrate and the intensity of the masking components (impact on the flavor of the soymilk itself).

O=C1CCCCCCCCCCCC(=O)OCCO1 [1,4-Dioxacycloheptadecan-5,17-Dione, 1,4-dioxacycloheptadecan-5,17-dione]
Off-Flavor Intensity ([1]; 0.001 ppt added): 3.5 points
Off-Flavor Intensity ([1]; 0.01 ppt added): 3.3 points
Off-Flavor Intensity ([1]; 0.1 ppt added): 2.9 points
Off-Flavor Intensity ([1]; 1 ppb added): 1.6 points
Off-Flavor Intensity ([1]; 1 ppt added): 2.8 points
Off-Flavor Intensity ([1]; 10 ppb added): 1.0 points
Off-Flavor Intensity ([1]; 10 ppt added): 2.3 points
Off-Flavor Intensity ([1]; 100 ppb added): 0.3 points
Off-Flavor Intensity ([1]; 100 ppt added): 2.0 points
Off-Flavor Intensity ([2]; 0.001 ppt added): 3.4 points
Off-Flavor Intensity ([2]; 0.01 ppt added): 3.4 points
Off-Flavor Intensity ([2]; 0.1 ppt added): 3.1 points
Off-Flavor Intensity ([2]; 1 ppb added): 1.8 points
Off-Flavor Intensity ([2]; 1 ppt added): 2.8 points
Off-Flavor Intensity ([2]; 10 ppb added): 1.5 points
Off-Flavor Intensity ([2]; 10 ppt added): 2.4 points
Off-Flavor Intensity ([2]; 100 ppb added): 0.6 points
Off-Flavor Intensity ([2]; 100 ppt added): 2.0 points
Off-Flavor Intensity ([3]; 0.001 ppt added): 3.6 points
Off-Flavor Intensity ([3]; 0.01 ppt added): 3.4 points
Off-Flavor Intensity ([3]; 0.1 ppt added): 3.0 points
Off-Flavor Intensity ([3]; 1 ppb added): 1.4 points
Off-Flavor Intensity ([3]; 1 ppt added): 2.6 points
Off-Flavor Intensity ([3]; 10 ppb added): 1.0 points
Off-Flavor Intensity ([3]; 10 ppt added): 2.4 points
Off-Flavor Intensity ([3]; 100 ppb added): 0.3 points
Off-Flavor Intensity ([3]; 100 ppt added): 1.8 points
Off-Flavor Intensity ([4]; 0.001 ppt added): 3.8 points
Off-Flavor Intensity ([4]; 0.01 ppt added): 3.5 points
Off-Flavor Intensity ([4]; 0.1 ppt added): 3.4 points
Off-Flavor Intensity ([4]; 1 ppb added): 2.1 points
Off-Flavor Intensity ([4]; 1 ppt added): 3.0 points
Off-Flavor Intensity ([4]; 10 ppb added): 1.6 points
Off-Flavor Intensity ([4]; 10 ppt added): 2.9 points
Off-Flavor Intensity ([4]; 100 ppb added): 1.0 points
Off-Flavor Intensity ([4]; 100 ppt added): 2.8 points
Off-Flavor Intensity ([5]; 0.001 ppt added): 3.4 points
Off-Flavor Intensity ([5]; 0.01 ppt added): 3.1 points
Off-Flavor Intensity ([5]; 0.1 ppt added): 2.9 points
Off-Flavor Intensity ([5]; 1 ppb added): 1.9 points
Off-Flavor Intensity ([5]; 1 ppt added): 2.8 points
Off-Flavor Intensity ([5]; 10 ppb added): 1.4 points
Off-Flavor Intensity ([5]; 10 ppt added): 2.5 points
Off-Flavor Intensity ([5]; 100 ppb added): 0.5 points
Off-Flavor Intensity ([5]; 100 ppt added): 2.1 points
Off-Flavor Intensity ([6]; 0.001 ppt added): 3.3 points
Off-Flavor Intensity ([6]; 0.01 ppt added): 3.0 points
Off-Flavor Intensity ([6]; 0.1 ppt added): 2.9 points
Off-Flavor Intensity ([6]; 1 ppb added): 1.8 points
Off-Flavor Intensity ([6]; 1 ppt added): 2.5 points
Off-Flavor Intensity ([6]; 10 ppb added): 1.4 points
Off-Flavor Intensity ([6]; 10 ppt added): 2.5 points
Off-Flavor Intensity ([6]; 100 ppb added): 0.9 points
Off-Flavor Intensity ([6]; 100 ppt added): 2.1 points
Masking Component Intensity ([7]; 1 ppb added): 0.3
Off-Flavor Intensity ([7]; 1 ppb added): 2.3
Masking Component Intensity ([7]; 1 ppm added): 2.6
Off-Flavor Intensity ([7]; 1 ppm added): 0.6
Masking Component Intensity ([7]; 10 ppb added): 1.0
Off-Flavor Intensity ([7]; 10 ppb added): 1.8
Masking Component Intensity ([7]; 10 ppt added): 0.0
Off-Flavor Intensity ([7]; 10 ppt added): 3.0
Masking Component Intensity ([7]; 100 ppb added): 1.9
Off-Flavor Intensity ([7]; 100 ppb added): 1.0
Masking Component Intensity ([7]; 100 ppt added): 0.0
Off-Flavor Intensity ([7]; 100 ppt added): 2.9
Masking Component Intensity ([8]; 1 ppb added): 0.9
Off-Flavor Intensity ([8]; 1 ppb added): 1.8
Masking Component Intensity ([8]; 1 ppm added): 2.8
Off-Flavor Intensity ([8]; 1 ppm added): 0.5
Masking Component Intensity ([8]; 10 ppb added): 1.3
Off-Flavor Intensity ([8]; 10 ppb added): 1.3
Masking Component Intensity ([8]; 10 ppt added): 0.4
Off-Flavor Intensity ([8]; 10 ppt added): 2.5
Masking Component Intensity ([8]; 100 ppb added): 2.1
Off-Flavor Intensity ([8]; 100 ppb added): 1.0
Masking Component Intensity ([8]; 100 ppt added): 0.5
Off-Flavor Intensity ([8]; 100 ppt added): 2.0
concentration that masks the off-flavor and does not affect the flavor of the food and/or beverage itself, lower limit [9]: ≥ 0.01 ppt
concentration that masks the off-flavor and does not affect the flavor of the food and/or beverage itself, upper limit [9]: ≤ 10 ppb
concentration that masks the off-flavor and does not affect the flavor of the soymilk itself, lower limit [10]: ≥ 10 ppt
concentration that masks the off-flavor and does not affect the flavor of the soymilk itself, upper limit [10]: ≤ 1 ppm
